Measured values from US20090131366A1, “Use of Amine-Borane Compounds as Anti-Microbial Agents” (priority 2005, published 2009).
≈ marks a conversion by molar mass, not a printed value. Like-named read-outs stand apart in the source and are kept apart here.

How the values were obtained:
[1] = tested on: Candida albicans 615; assay type: cell-based
[2] = tested on: Candida albicans 607; assay type: cell-based
[3] = tested on: Candida albicans CBS 562; assay type: cell-based
[4] = tested on: Aspergillus fumigatus 64026; assay type: cell-based
[5] = tested on: Candida glabrata 4210; assay type: cell-based; conditions: Table 1, footnote c
[6] = tested on: Candida glabrata 4475 (resistant to azoles); assay type: cell-based; conditions: Table 1, footnote c
[7] = tested on: male ICR mice; conditions: mice that received the MTD
[8] = tested on: Candida glabrata 4787; assay type: cell-based
[9] = in vivo; conditions: male, ICR, mouse, iv
[10] = tested on: Candida glabrata 4681; assay type: cell-based; conditions: Table 1, footnote c

Row | Molecule | MIC ([1]; Table 1) [µM] | MIC ([2]; Table 1) [µM] | MIC ([3]; Table 1) [µM] | MIC ([1]; Table 1, read-out: MIC) [µM] | MIC ([2]; Table 1, read-out: MIC) [µM] | MIC ([3]; CBS562, Table 1, read-out: MIC) [µM] | MIC ([4]; Table 1, read-out: MIC) [µM] | other results
1 | C[C@@H]1[C@H](O)[C@@H](C)/C=C/C=C/C=C/C=C/C=C/C=C/C=C/[C@H](O[C@@H]2O[C@H](C)[C@@H](O)[C@H](N)[C@@H]2O)C[C@@H]2O[C@](O)(C[C@@H](O)C[C@@H](O)[C@H](O)CC[C@@H](O)C[C@@H](O)CC(=O)O[C@H]1C)C[C@H](O)[C@H]2C(=O)O [CAF1, Amphotericin B, reference compound] | 0.27 (≈ 0.25 µg/mL) | 0.27 (≈ 0.25 µg/mL) | 0.54 (≈ 0.499 µg/mL) |  |  |  |  | MIC ([4]; Table 1): 0.5 µM (≈ 0.462 µg/mL)
2 | OC(Cn1cncn1)(Cn1cncn1)c1ccc(F)cc1F [CAF2, Fluconazole, reference compound] |  |  |  | 1.6 (≈ 0.49 µg/mL) | 1.6 (≈ 0.49 µg/mL) | 1.6 (≈ 0.49 µg/mL) | > 208 | 
3 | C=CCCN(C)C [K-D, but-3-enyl-dimethyl-amine cyanoborane] |  |  |  | > 3620 | 3620 (≈ 359 µg/mL) | 470 (≈ 46.6 µg/mL) | > 3620 | 
4 | C[N+](C)(C)[B-](Br)(Br)C#N [K-E, trimethyl-amine cyanodibromoborane] | >1970 | >1970 | 1970 (≈ 504 µg/mL) |  |  |  |  | MIC [5]: 500^c μg per liter; MIC [6]: >500^c μg per liter
5 | CCCCN(C)C [K-G, butyl-dimethyl-amine cyanoborane] |  |  |  | > 3570 | > 3570 | 3570 (≈ 361 µg/mL) | > 3570 | 
6 | CCCCCN(C)C [K-H, pentyl-dimethyl-amine cyanoborane] |  |  |  | 3240 (≈ 373 µg/mL) | 3240 (≈ 373 µg/mL) | 810 (≈ 93.3 µg/mL) | 3240 (≈ 373 µg/mL) | 
7 | CCCCCCCCCCCN(C)C [K-I1, dimethyl-undecyl-amine cyanobromoborane] |  |  |  |  |  |  |  | MIC ([1]; Candida albicans, 615, Table 1 column C, read-out: MIC): 49 µM (≈ 9.77 µg/mL); MIC ([2]; Candida albicans, 607, Table 1 column B, read-out: MIC): 49 µM (≈ 9.77 µg/mL); MIC ([3]; Candida albicans, CBS562, Table 1 column A, read-out: MIC): 49 µM (≈ 9.77 µg/mL); MIC ([4]; Aspergillus fumigatus, 64026, Table 1 column I, read-out: MIC): 131 µM (≈ 26.1 µg/mL)
8 | CCCCCCCCCCCN(C)C [K-I2, dimethyl-undecyl-amine cyanodibromoborane] | 39 (≈ 7.78 µg/mL) | 39 (≈ 7.78 µg/mL) | 39 (≈ 7.78 µg/mL) |  |  |  |  | clinical signs, body weights and gross necropsy (day 8) [7]: No changes; MIC ([8]; Table 1): 32 µM (≈ 6.38 µg/mL); MTD [9]: 73.1 µmol/kg; MIC [10]: 32^c μg per liter; MIC ([4]; Table 1): 79 µM (≈ 15.8 µg/mL)
9 | CCCCCCCCCCCN(C)C [K-I3, dimethyl-undecyl-amine cyanofluorobromoborane] |  |  |  |  |  |  |  | MIC ([3]; Candida albicans, CBS562, 24 h, Table 1, read-out: MIC): 7.8 µM (≈ 1.56 µg/mL)
10 | CCCCCCCCCCCN(C)C [K-I4, dimethyl-undecyl-amine cyanofluoroborane] | 64 (≈ 12.8 µg/mL) | 64 (≈ 12.8 µg/mL) | 64 (≈ 12.8 µg/mL) |  |  |  |  | MIC ([4]; Table 1): 129 µM (≈ 25.7 µg/mL)
11 | C[N+](C)(CCCCCCCCCC[N+](C)(C)[B-](Br)(Br)C#N)[B-](Br)(Br)C#N [K-J2, N,N,N′,N′-tetramethyl-decane-1,10-diamine bis-cyanodibromoborane] | 104 (≈ 64.7 µg/mL) | 104 (≈ 64.7 µg/mL) | 104 (≈ 64.7 µg/mL) |  |  |  |  | MIC [5]: 65^c μg per liter; MIC [6]: 65^c μg per liter; MIC ([8]; Table 1): 65 µM (≈ 40.4 µg/mL); MIC [10]: 65^c μg per liter
12 | CN(C)CCCCCCCCCCCCN(C)C [K-M, N,N,N′,N′-tetramethyl-dodecane-1,12-diamine bis-cyanoborane] |  |  |  | 46 (≈ 11.8 µg/mL) | 194 (≈ 49.8 µg/mL) | 96 (≈ 24.6 µg/mL) |  | MIC ([8]; Nakaseomyces glabratus, Table 1, read-out: MIC): 250 µM (≈ 64.1 µg/mL); MIC [10]: 125^c μg per liter
13 | CN(C)CCCCCCCCCCCCCCN(C)C [K-N, N,N,N′,N′-tetramethyl-tetradecane-1,14-diamine bis-cyanoborane] |  |  |  | 43 (≈ 12.2 µg/mL) | 43 (≈ 12.2 µg/mL) | 43 (≈ 12.2 µg/mL) | 86 (≈ 24.5 µg/mL) | 
14 | CCCCCCC(C)(O)CN(C)C (centres unmarked) [K-O, 1-dimethylamino-2-methyl-octan-2-ol cyanoborane] |  |  |  | 1100 (≈ 206 µg/mL) | 1100 (≈ 206 µg/mL) | 2210 (≈ 414 µg/mL) |  | 
15 | CCCCCCCCCC(O)CN(C)C (centres unmarked) [K-U, 1-dimethylamino-undecan-2-ol cyanoborane] |  |  |  | 983 (≈ 212 µg/mL) | 492 (≈ 106 µg/mL) | 492 (≈ 106 µg/mL) | 492 (≈ 106 µg/mL) | 
16 | C=CCCCCN(C)C [K-V, hex-5-enyl-dimethyl-amine cyanoborane] |  |  |  | 94 (≈ 12 µg/mL) | 94 (≈ 12 µg/mL) | 94 (≈ 12 µg/mL) | 94 (≈ 12 µg/mL) | 
17 | N,N,N′,N′-tetramethyl- decane-1,10-diamine bis- carboxyborane [K-J3] | 907 | 188 | 188 |  |  |  |  | MIC [5]: 65^c μg per liter; MIC [6]: 31.2^c μg per liter; MIC ([8]; Table 1): 65 µM; MIC [10]: 65^c μg per liter
18 | N,N,N′,N′-tetramethyl- decane-1,10-diamine bis- cyanobromoborane [K-J1] | 140 | 140 | 140 |  |  |  |  | MIC [5]: 65^c μg per liter; MIC [6]: 65^c μg per liter; MIC ([8]; Table 1): 65 µM; MIC [10]: 65^c μg per liter
